Reference: the supplement of paper PMC6045584
± gives the standard deviation of the averaged measurements.

What was measured:
SNX-5422 = compound: CC1(C)CC(=O)c2c(C(F)(F)F)nn(-c3ccc(C(N)=O)c(N[C@H]4CC[C@H](OC(=O)CN)CC4)c3)c2C1 [SNX-5422]; assay: surviving fraction relative to DMSO-only wells; higher = less growth inhibition; conditions: exposure time: 5 days
Outline: (§1)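 In 384-well plates, 250–500 log-phase tumour cells per well were given 24 hours before five days of continuous exposure to inhibitors at 0.5, 1, 5, 10, 50, 100, 500 and 1000 nM. Surviving fraction is luminescence from CellTiter-Glo, normalised to the median of wells containing DMSO alone. Reading took place after 10 minutes at room temperature.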

TIOGUANINE = compound: Nc1nc2[nH]cnc2c(=S)[nH]1 [TIOGUANINE]; assay: as above; conditions: exposure time: 5 days
Outline: as §1

Row | Test System | surviving fraction (SNX-5422; 0.5 nM) | surviving fraction (SNX-5422; 1 nM) | surviving fraction (SNX-5422; 5 nM) | surviving fraction (SNX-5422; 10 nM) | surviving fraction (SNX-5422; 50 nM) | surviving fraction (SNX-5422; 100 nM) | surviving fraction (SNX-5422; 500 nM) | surviving fraction (SNX-5422; 1000 nM) | surviving fraction (TIOGUANINE; 0.5 nM) | surviving fraction (TIOGUANINE; 1 nM) | surviving fraction (TIOGUANINE; 5 nM) | surviving fraction (TIOGUANINE; 10 nM) | surviving fraction (TIOGUANINE; 50 nM) | surviving fraction (TIOGUANINE; 100 nM) | surviving fraction (TIOGUANINE; 500 nM) | surviving fraction (TIOGUANINE; 1000 nM)
1 | HCC1395 BREAST | 0.865 ± 0.17 | 0.862 ± 0.071 | 0.943 ± 0.15 | 1.16 ± 0.23 | 0.975 ± 0.15 | 1.15 ± 0.066 | 0.818 ± 0.1 | 0.893 ± 0.05 | 0.999 ± 0.06 | 1.12 ± 0.064 | 0.968 ± 0.1 | 1.11 ± 0.054 | 1.05 ± 0.039 | 1.16 ± 0.04 | 1.11 ± 0.086 | 1.09 ± 0.081
2 | HCC1954 BREAST | 0.8303 ± 0.0039 | 0.93 ± 0.028 | 0.873 ± 0.042 | 0.762 ± 0.06 | 0.151 ± 0.0095 | 0.109 ± 0.0067 | 0.0587 ± 0.0011 | 0.062 ± 0.0021 | 0.867 ± 0.18 | 0.986 ± 0.24 | 1.08 ± 0.075 | 0.96 ± 0.1 | 0.997 ± 0.18 | 0.911 ± 0.05 | 0.969 ± 0.054 | 0.871 ± 0.051
3 | HCT15 LARGE INTESTINE | 1.05 ± 0.018 | 1.03 ± 0.029 | 1.06 ± 0.051 | 1.09 ± 0.022 | 0.77 ± 0.12 | 0.303 ± 0.03 | 0.0797 ± 0.0015 | 0.074 ± 0.009 | 0.968 ± 0.012 | 0.913 ± 0.05 | 0.979 ± 0.016 | 0.967 ± 0.051 | 1.02 ± 0.067 | 1.06 ± 0.023 | 1.04 ± 0.015 | 0.995 ± 0.012
4 | HMT3552 BREAST | 1.04 | 1.05 | 1.12 | 1.08 | 0.171 | 0.106 | 0.082 | 0.079 | 1.11 | 1.06 | 1.05 | 1.04 | 1.05 | 1.12 | 0.591 | 0.38
5 | HOS BONE | 1.01 ± 0.015 | 1.04 ± 0.039 | 1.08 ± 0.016 | 1.04 ± 0.031 | 0.028 ± 0.001 | 0.051 ± 0.0078 | 0.0377 ± 0.0011 | 0.0417 ± 0.0021 | 1 ± 0.011 | 0.9977 ± 0.0091 | 1.004 ± 0.0085 | 1.02 ± 0.032 | 1.05 ± 0.033 | 1.038 ± 0.0061 | 0.75 ± 0.037 | 0.612 ± 0.016
6 | HOSMNG BONE | 1.02 ± 0.017 | 1 ± 0.036 | 1.01 ± 0.04 | 0.973 ± 0.018 | 0.964 ± 0.084 | 0.299 ± 0.061 | 0.12 ± 0.012 | 0.108 ± 0.0047 | 0.991 ± 0.03 | 1.01 ± 0.029 | 0.988 ± 0.068 | 0.989 ± 0.016 | 1.05 ± 0.047 | 1.02 ± 0.089 | 1.04 ± 0.037 | 0.983 ± 0.028
7 | HS578T BREAST | 1.07 ± 0.13 | 0.93 ± 0.099 | 0.871 ± 0.056 | 0.992 ± 0.22 | 0.387 ± 0.044 | 0.466 ± 0.021 | 0.298 ± 0.037 | 0.245 ± 0.029 | 0.998 ± 0.085 | 0.872 ± 0.14 | 0.944 ± 0.082 | 0.959 ± 0.075 | 0.923 ± 0.12 | 0.985 ± 0.12 | 1.01 ± 0.068 | 0.897 ± 0.17
8 | HSSYII SYNOVIAL | 0.976 ± 0.035 | 0.979 ± 0.042 | 1.09 ± 0.04 | 0.977 ± 0.0066 | 0.23 ± 0.015 | 0.152 ± 0.0056 | 0.0738 ± 0.003 | 0.0662 ± 0.0051 | 0.927 ± 0.055 | 0.911 ± 0.028 | 0.954 ± 0.05 | 0.92 ± 0.027 | 0.941 ± 0.055 | 0.972 ± 0.049 | 0.885 ± 0.02 | 0.842 ± 0.059
9 | HT1080 SOFT TISSUE | 1.02 ± 0.016 | 1.03 ± 0.0021 | 1.062 ± 0.0015 | 1.155 ± 0.01 | 0.414 ± 0.034 | 0.238 ± 0.011 | 0.121 ± 0.007 | 0.12 ± 0.01 | 1 ± 0.012 | 0.989 ± 0.026 | 0.982 ± 0.016 | 1.04 ± 0.016 | 1.02 ± 0.041 | 0.974 ± 0.022 | 0.81 ± 0.013 | 0.594 ± 0.036
10 | HU09 BONE | 1.02 ± 0.032 | 0.991 ± 0.095 | 1.03 ± 0.15 | 0.701 ± 0.017 | 0.0323 ± 0.0029 | 0.023 ± 0.0017 | 0.0257 ± 0.0021 | 0.03 ± 0.002 | 0.964 ± 0.059 | 1.05 ± 0.071 | 1.05 ± 0.041 | 1.1 ± 0.074 | 1.04 ± 0.062 | 1.09 ± 0.089 | 1.06 ± 0.015 | 0.927 ± 0.11
11 | HUO3N1 BONE | 0.99 ± 0.02 | 1.03 ± 0.021 | 1.07 ± 0.032 | 1.1 ± 0.06 | 0.767 ± 0.023 | 0.503 ± 0.026 | 0.391 ± 0.02 | 0.319 ± 0.0095 | 0.992 ± 0.071 | 1.02 ± 0.098 | 1.1 ± 0.059 | 0.98 ± 0.058 | 1.02 ± 0.019 | 1.06 ± 0.049 | 1.06 ± 0.055 | 1.02 ± 0.018
12 | JIMT1 BREAST | 0.994 ± 0.017 | 0.973 ± 0.032 | 1.01 ± 0.026 | 1.01 ± 0.015 | 0.792 ± 0.0081 | 0.271 ± 0.029 | 0.0693 ± 0.0067 | 0.0723 ± 0.0026 | 0.966 ± 0.018 | 0.975 ± 0.023 | 0.984 ± 0.034 | 0.9947 ± 0.0086 | 1.05 ± 0.015 | 1.03 ± 0.025 | 0.9495 ± 0.0077 | 0.912 ± 0.0067
13 | JURKAT HAEMATOPOIETIC AND LYMPHOID TISSUE | 1.06 ± 0.014 | 1.05 ± 0.02 | 0.973 ± 0.082 | 0.942 ± 0.026 | 0.094 ± 0.0027 | 0.0437 ± 0.00058 | 0.0387 ± 0.0023 | 0.0443 ± 0.0011 | 1.05 ± 0.034 | 1.07 ± 0.032 | 1.07 ± 0.04 | 1.043 ± 0.0097 | 1.02 ± 0.039 | 1.04 ± 0.018 | 1.01 ± 0.012 | 0.565 ± 0.013
14 | KPD BONE | 1 ± 0.015 | 1.03 ± 0.07 | 1.02 ± 0.054 | 0.954 ± 0.026 | 0.265 ± 0.0056 | 0.109 ± 0.004 | 0.0673 ± 0.0015 | 0.0643 ± 0.0067 | 0.998 ± 0.045 | 0.985 ± 0.098 | 0.989 ± 0.049 | 1 ± 0.047 | 1.03 ± 0.084 | 1.05 ± 0.027 | 1.03 ± 0.019 | 0.993 ± 0.059
15 | LM7 BONE | 1 ± 0.11 | 0.896 ± 0.075 | 0.946 ± 0.059 | 0.904 ± 0.077 | 0.294 ± 0.028 | 0.176 ± 0.0099 | 0.0897 ± 0.0035 | 0.0873 ± 0.01 | 0.966 ± 0.054 | 0.984 ± 0.068 | 1.02 ± 0.064 | 1.05 ± 0.068 | 1.08 ± 0.058 | 1.07 ± 0.039 | 0.965 ± 0.1 | 0.939 ± 0.13
16 | LNCAP PROSTATE | 0.905 ± 0.09 | 0.969 ± 0.13 | 0.79 ± 0.043 | 0.774 ± 0.12 | 0.19 ± 0.022 | 0.124 ± 0.0057 | 0.05 ± 0.004 | 0.06 ± 0.0072 | 0.933 ± 0.078 | 0.912 ± 0.028 | 0.955 ± 0.17 | 0.964 ± 0.09 | 1.07 ± 0.11 | 0.976 ± 0.085 | 0.971 ± 0.06 | 0.977 ± 0.07
17 | MCF7 BREAST | 0.9 ± 0.094 | 0.925 ± 0.068 | 0.94 ± 0.066 | 0.906 ± 0.07 | 0.627 ± 0.02 | 0.465 ± 0.011 | 0.303 ± 0.015 | 0.321 ± 0.01 | 0.824 ± 0.015 | 0.804 ± 0.075 | 0.846 ± 0.032 | 0.835 ± 0.025 | 0.903 ± 0.045 | 0.875 ± 0.069 | 0.872 ± 0.054 | 0.889 ± 0.055
18 | MDAMB157 BREAST | 0.999 ± 0.11 | 0.958 ± 0.067 | 0.941 ± 0.059 | 1.11 ± 0.043 | 0.575 ± 0.12 | 0.266 ± 0.06 | 0.258 ± 0.043 | 0.191 ± 0.01 | 0.867 ± 0.072 | 0.857 ± 0.052 | 0.958 ± 0.013 | 0.921 ± 0.071 | 0.986 ± 0.078 | 0.961 ± 0.085 | 0.88 ± 0.055 | 0.89 ± 0.039
19 | MDAMB231 BREAST | 0.971 ± 0.021 | 0.998 ± 0.034 | 1.01 ± 0.035 | 1.02 ± 0.018 | 0.65 ± 0.032 | 0.455 ± 0.03 | 0.0989 ± 0.0031 | 0.0988 ± 0.0026 | 0.988 ± 0.027 | 0.994 ± 0.021 | 1.01 ± 0.027 | 0.994 ± 0.028 | 1.01 ± 0.035 | 1.01 ± 0.035 | 0.74 ± 0.039 | 0.573 ± 0.016
20 | MDAMB361 BREAST | 0.884 ± 0.064 | 0.974 ± 0.14 | 0.76 ± 0.043 | 0.816 ± 0.037 | 0.443 ± 0.025 | 0.879 ± 0.2 | 0.307 ± 0.0076 | 0.294 ± 0.015 | 0.914 ± 0.011 | 0.845 ± 0.011 | 0.881 ± 0.0085 | 0.884 ± 0.062 | 0.846 ± 0.018 | 0.955 ± 0.054 | 0.882 ± 0.067 | 0.963 ± 0.043
21 | MDAMB436 BREAST | 0.91 ± 0.056 | 0.873 ± 0.066 | 0.892 ± 0.044 | 0.903 ± 0.12 | 0.471 ± 0.016 | 0.305 ± 0.0098 | 0.316 ± 0.013 | 0.326 ± 0.011 | 0.892 ± 0.057 | 0.837 ± 0.05 | 0.864 ± 0.059 | 0.932 ± 0.028 | 1.03 ± 0.096 | 0.906 ± 0.13 | 0.921 ± 0.094 | 0.928 ± 0.065
